Test results as given in patent US6737383B1, “Herbicidal oxadiazolidines” (priority 1999, dated 2004).

Legend:
surinam grass = assay: Test B pre/postemergence surinam grass; assay type: in vivo, Brachiaria decumbens; conditions: for B. signalgrass plant response rating: scale of 0 to 10 where 0 is no effect and 10 is complete control
Summary of the method: (§1)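 Test chemicals in a non-phytotoxic solvent mixture with surfactant were sprayed preemergence onto planted seeds and postemergence onto plants 2 to 18 cm tall (1- to 4-leaf stage). After twelve to sixteen days in a greenhouse, injury was visually rated against untreated controls from 0 (no effect) to 10 (complete control).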

bedstraw = assay: Test B pre/postemergence bedstraw; assay type: in vivo, Galium aparine; conditions: for Bedstraw plant response rating: scale of 0 to 10 where 0 is no effect and 10 is complete control
Summary of the method: as §1

crabgrass = assay: Test B pre/postemergence crabgrass; assay type: in vivo, Digitaria sanguinalis; conditions: for Crabgrass plant response rating: scale of 0 to 10 where 0 is no effect and 10 is complete control
Summary of the method: as §1

rape = assay: Test B pre/postemergence rape; assay type: in vivo, Brassica napus; conditions: for Rape plant response rating: scale of 0 to 10 where 0 is no effect and 10 is complete control
Summary of the method: as §1

giant foxtail = assay: Test B pre/postemergence giant foxtail; assay type: in vivo, Setaria faberii; conditions: for Giant foxtail plant response rating: scale of 0 to 10 where 0 is no effect and 10 is complete control
Summary of the method: as §1

sugar beet = assay: Test B pre/postemergence sugar beet; assay type: in vivo, Beta vulgaris; conditions: for Sugarbeets plant response rating: scale of 0 to 10 where 0 is no effect and 10 is complete control
Summary of the method: as §1

wild oat = assay: Test B pre/postemergence wild oat; assay type: in vivo, Avena fatua; conditions: for Wild oats plant response rating: scale of 0 to 10 where 0 is no effect and 10 is complete control
Summary of the method: as §1

blackgrass = assay: Test B pre/postemergence blackgrass; assay type: in vivo, Alopecurus myosuroides; conditions: for Blackgrass plant response rating: scale of 0 to 10 where 0 is no effect and 10 is complete control
Summary of the method: as §1

purple nutsedge = assay: Test B pre/postemergence purple nutsedge; assay type: in vivo, Cyperus rotundus; conditions: for Nutsedge plant response rating: scale of 0 to 10 where 0 is no effect and 10 is complete control
Summary of the method: as §1

wheat = assay: Test B pre/postemergence wheat; assay type: in vivo, Triticum aestivum; conditions: for Wheat plant response rating: scale of 0 to 10 where 0 is no effect and 10 is complete control
Summary of the method: as §1

pigweed = assay: Test B pre/postemergence pigweed; assay type: in vivo, Amaranthus retroflexus; conditions: for Redroot pigweed plant response rating: scale of 0 to 10 where 0 is no effect and 10 is complete control
Summary of the method: as §1

soybean = assay: Test B pre/postemergence soybean; assay type: in vivo, Glycine max; conditions: for Soybean plant response rating: scale of 0 to 10 where 0 is no effect and 10 is complete control
Summary of the method: as §1

cocklebur = assay: Test B pre/postemergence cocklebur; assay type: in vivo, Xanthium strumarium; conditions: for Cocklebur plant response rating: scale of 0 to 10 where 0 is no effect and 10 is complete control
Summary of the method: as §1

morningglory = assay: Test B pre/postemergence morningglory; assay type: in vivo, Ipomoea hederacea; conditions: for Morningglory plant response rating: scale of 0 to 10 where 0 is no effect and 10 is complete control
Summary of the method: as §1

velvetleaf = assay: Test B pre/postemergence velvetleaf; assay type: in vivo, Abutilon theophrasti; conditions: for Velvetleaf plant response rating: scale of 0 to 10 where 0 is no effect and 10 is complete control
Summary of the method: as §1

corn = assay: Test B pre/postemergence corn; assay type: in vivo, Zea mays; conditions: for Corn plant response rating: scale of 0 to 10 where 0 is no effect and 10 is complete control
Summary of the method: as §1

[1] = Postemergence, Rate 125 g/ha, scale 0 to 10, 0 is no effect, 10 is complete control
[2] = Postemergence, Rate 250 g/ha, scale 0 to 10, 0 is no effect, 10 is complete control
[3] = Preemergence, Rate 62 g/ha, scale 0 to 10 (0 no effect, 10 complete control)
[4] = Rate 500 g/ha, Postemergence, scale 0 to 10, 0 no effect, 10 complete control

SMILES: CC(C)N(C(=O)n1oc(=O)n(C2(C)CC2)c1=O)c1ccc(F)cc1F [Compound 363]
- Plant response rating, B. signalgrass (surinam grass; [1]): 0
- Plant response rating, B. signalgrass (surinam grass; [2]): 1
- Plant response rating, B. signalgrass (surinam grass; [3]): 3
- B. signalgrass plant response rating (0 to 10 scale, 0 is no effect, 10 is complete control) (surinam grass; Preemergence, Rate 125 g/ha): 3
- B. signalgrass plant response rating (surinam grass; Preemergence, Rate 250 g/ha): 5
- B. signalgrass plant response rating (surinam grass; Preemergence, Rate 500 g/ha): 6
- B. signalgrass plant response rating (surinam grass; Rate 62 g/ha, Postemergence): 0
- Plant response rating, B. signalgrass (surinam grass; [4]): 5
- Plant response rating, Bedstraw (bedstraw; [1]): 4
- Plant response rating, Bedstraw (bedstraw; [2]): 7
- Plant response rating, Bedstraw (bedstraw; [3]): 9
- Bedstraw plant response rating (0 to 10 scale) (bedstraw; Preemergence, Rate 125 g/ha): 9
- Bedstraw plant response rating (bedstraw; Preemergence, Rate 250 g/ha): 10
- Bedstraw plant response rating (bedstraw; Preemergence, Rate 500 g/ha): 10
- Bedstraw plant response rating (bedstraw; Rate 62 g/ha, Postemergence): 4
- Plant response rating, Bedstraw (bedstraw; [4]): 9
- Plant response rating, Crabgrass (crabgrass; [1]): 2
- Plant response rating, Crabgrass (crabgrass; [2]): 5
- Plant response rating, Crabgrass (crabgrass; [3]): 3
- Crabgrass plant response rating (0 to 10 scale) (crabgrass; Preemergence, Rate 125 g/ha): 7
- Crabgrass plant response rating (crabgrass; Preemergence, Rate 250 g/ha): 7
- Crabgrass plant response rating (crabgrass; Preemergence, Rate 500 g/ha): 9
- Crabgrass plant response rating (crabgrass; Rate 62 g/ha, Postemergence): 1
- Plant response rating, Crabgrass (crabgrass; [4]): 9
- Plant response rating, Rape (rape; [1]): 0
- Plant response rating, Rape (rape; [2]): 0
- Plant response rating, Rape (rape; [3]): 0
- Rape plant response rating (0 to 10 scale) (rape; Preemergence, Rate 125 g/ha): 1
- Rape plant response rating (rape; Preemergence, Rate 250 g/ha): 3
- Rape plant response rating (rape; Preemergence, Rate 500 g/ha): 5
- Rape plant response rating (rape; Rate 62 g/ha, Postemergence): 0
- Plant response rating, Rape (rape; [4]): 2
- Plant response rating, Giant foxtail (giant foxtail; [1]): 4
- Plant response rating, Giant foxtail (giant foxtail; [2]): 9
- Giant foxtail plant response rating (0 to 10 scale) (giant foxtail; Preemergence, Rate 125 g/ha): 10
- Giant foxtail plant response rating (giant foxtail; Preemergence, Rate 250 g/ha): 10
- Giant foxtail plant response rating (giant foxtail; Preemergence, Rate 500 g/ha): 10
- Giant foxtail plant response rating (giant foxtail; Rate 62 g/ha, Postemergence): 4
- Plant response rating, Giant foxtail (giant foxtail; [4]): 9
- Plant response rating, Sugarbeets (sugar beet; [1]): 1
- Plant response rating, Sugarbeets (sugar beet; [2]): 3
- Plant response rating, Sugarbeets (sugar beet; [3]): 0
- Sugarbeets plant response rating (0 to 10 scale) (sugar beet; Preemergence, Rate 125 g/ha): 4
- Sugarbeets plant response rating (sugar beet; Preemergence, Rate 250 g/ha): 7
- Sugarbeets plant response rating (sugar beet; Preemergence, Rate 500 g/ha): 8
- Sugarbeets plant response rating (sugar beet; Rate 62 g/ha, Postemergence): 0
- Plant response rating, Sugarbeets (sugar beet; [4]): 3
- Plant response rating, Wild oats (wild oat; [1]): 0
- Plant response rating, Wild oats (wild oat; [2]): 1
- Plant response rating, Wild oats (wild oat; [3]): 5
- Wild oats plant response rating (0 to 10 scale) (wild oat; Preemergence, Rate 125 g/ha): 9
- Wild oats plant response rating (wild oat; Preemergence, Rate 250 g/ha): 10
- Wild oats plant response rating (wild oat; Preemergence, Rate 500 g/ha): 10
- Wild oats plant response rating (wild oat; Rate 62 g/ha, Postemergence): 0
- Plant response rating, Wild oats (wild oat; [4]): 7
- Plant response rating, Blackgrass (blackgrass; [1]): 7
- Plant response rating, Blackgrass (blackgrass; [2]): 7
- Plant response rating, Blackgrass (blackgrass; [3]): 8
- Blackgrass plant response rating (0 to 10 scale) (blackgrass; Preemergence, Rate 125 g/ha): 10
- Blackgrass plant response rating (blackgrass; Preemergence, Rate 250 g/ha): 10
- Blackgrass plant response rating (blackgrass; Preemergence, Rate 500 g/ha): 10
- Blackgrass plant response rating (blackgrass; Rate 62 g/ha, Postemergence): 5
- Plant response rating, Blackgrass (blackgrass; [4]): 8
- Plant response rating, Nutsedge (purple nutsedge; [1]): 0
- Plant response rating, Nutsedge (purple nutsedge; [2]): 0
- Plant response rating, Nutsedge (purple nutsedge; [3]): 0
- Nutsedge plant response rating (0 to 10 scale) (purple nutsedge; Preemergence, Rate 125 g/ha): 0
- Nutsedge plant response rating (purple nutsedge; Preemergence, Rate 250 g/ha): 0
- Nutsedge plant response rating (purple nutsedge; Preemergence, Rate 500 g/ha): 2
- Nutsedge plant response rating (purple nutsedge; Rate 62 g/ha, Postemergence): 0
- Plant response rating, Nutsedge (purple nutsedge; [4]): 0
- Plant response rating, Wheat (wheat; [1]): 4
- Plant response rating, Wheat (wheat; [2]): 5
- Plant response rating, Wheat (wheat; [3]): 3
- Wheat plant response rating (0 to 10 scale) (wheat; Preemergence, Rate 125 g/ha): 5
- Wheat plant response rating (wheat; Preemergence, Rate 250 g/ha): 6
- Wheat plant response rating (wheat; Preemergence, Rate 500 g/ha): 7
- Wheat plant response rating (wheat; Rate 62 g/ha, Postemergence): 0
- Plant response rating, Wheat (wheat; [4]): 6
- Plant response rating, Redroot pigweed (pigweed; [1]): 0
- Plant response rating, Redroot pigweed (pigweed; [2]): 2
- Plant response rating, Redroot pigweed (pigweed; [3]): 2
- Redroot pigweed plant response rating (0 to 10 scale) (pigweed; Preemergence, Rate 125 g/ha): 3
- Redroot pigweed plant response rating (pigweed; Preemergence, Rate 250 g/ha): 7
- Redroot pigweed plant response rating (pigweed; Preemergence, Rate 500 g/ha): 10
- Redroot pigweed plant response rating (pigweed; Rate 62 g/ha, Postemergence): 0
- Plant response rating, Redroot pigweed (pigweed; [4]): 5
- Plant response rating, Soybean (soybean; [1]): 5
- Plant response rating, Soybean (soybean; [2]): 6
- Plant response rating, Soybean (soybean; [3]): 0
- Soybean plant response rating (0 to 10 scale) (soybean; Preemergence, Rate 125 g/ha): 0
- Soybean plant response rating (soybean; Preemergence, Rate 250 g/ha): 0
- Soybean plant response rating (soybean; Preemergence, Rate 500 g/ha): 0
- Soybean plant response rating (soybean; Rate 62 g/ha, Postemergence): 4
- Plant response rating, Soybean (soybean; [4]): 7
- Plant response rating, Cocklebur (cocklebur; [1]): 0
- Plant response rating, Cocklebur (cocklebur; [2]): 2
- Plant response rating, Cocklebur (cocklebur; [3]): 0
- Cocklebur plant response rating (0 to 10 scale) (cocklebur; Preemergence, Rate 125 g/ha): 0
- Cocklebur plant response rating (cocklebur; Preemergence, Rate 250 g/ha): 0
- Cocklebur plant response rating (cocklebur; Preemergence, Rate 500 g/ha): 0
- Cocklebur plant response rating (cocklebur; Rate 62 g/ha, Postemergence): 0
- Plant response rating, Cocklebur (cocklebur; [4]): 2
- Plant response rating, Morningglory (morningglory; [1]): 1
- Plant response rating, Morningglory (morningglory; [2]): 1
- Plant response rating, Morningglory (morningglory; [3]): 0
- Morningglory plant response rating (0 to 10 scale) (morningglory; Preemergence, Rate 125 g/ha): 0
- Morningglory plant response rating (morningglory; Preemergence, Rate 250 g/ha): 5
- Morningglory plant response rating (morningglory; Preemergence, Rate 500 g/ha): 6
- Morningglory plant response rating (morningglory; Rate 62 g/ha, Postemergence): 1
- Plant response rating, Morningglory (morningglory; [4]): 3
- Plant response rating, Velvetleaf (velvetleaf; [1]): 0
- Plant response rating, Velvetleaf (velvetleaf; [2]): 3
- Plant response rating, Velvetleaf (velvetleaf; [3]): 1
- Velvetleaf plant response rating (0 to 10 scale) (velvetleaf; Preemergence, Rate 125 g/ha): 5
- Velvetleaf plant response rating (velvetleaf; Preemergence, Rate 250 g/ha): 6
- Velvetleaf plant response rating (velvetleaf; Preemergence, Rate 500 g/ha): 7
- Velvetleaf plant response rating (velvetleaf; Rate 62 g/ha, Postemergence): 0
- Plant response rating, Velvetleaf (velvetleaf; [4]): 6
- Plant response rating, Corn (corn; [1]): 0
- Plant response rating, Corn (corn; [2]): 2
- Plant response rating, Corn (corn; [3]): 0
- Corn plant response rating (0 to 10 scale) (corn; Preemergence, Rate 125 g/ha): 0
- Corn plant response rating (corn; Preemergence, Rate 250 g/ha): 3
- Corn plant response rating (corn; Preemergence, Rate 500 g/ha): 7
- Corn plant response rating (corn; Rate 62 g/ha, Postemergence): 0
- Plant response rating, Corn (corn; [4]): 6
